In patent US4327114A, “Substituted 1,8-dihydroxy-9-(10H)anthracenones” (Boehringer Ingelheim GmbH, priority 1980, dated 1982):

How the values were obtained:
[1] = test system: skin (forearms of volunteer human test subjects); experiment: Orienting skin compatibility in humans (ointments on forearm); assay type: in vivo; settings: 0.44% ointment, 16 hours, doubled to 0.88% after 3 days if no reaction
Procedure: Ointments, each containing individually 0.44% of compounds […] and K were applied to the forearms of volunteer human test subjects, covered with bandage gauze and allowed to remain on the skin for 16 hours. After 16 hours the ointments were washed off with soap solution, and the skin irritation and discoloration, if any, were evaluated visually and photographed. Then, the test ointments were again administered and allowed to remain on the skin until the next day. Again, the reactions were evaluated and a new treatment was started.

[2] = target: glucose-6-phosphate-dihydrogenase; experiment: Inhibition of glucose-6-phosphate-dihydrogenase after 120 minutes incubation; assay type: biochemical; settings: 37° C., pH 7.6, REED and MUENCH
Procedure: The inhibiting effect upon enzymes was determined by measurement of the inhibition of glucose-6-phosphate-dihydrogenase.
The following equilibrium was observed: [drawing 5] (NADP-nicotinamide-adenine-dinucleotide-phosphate). The rate of formation of NADPH is a measure of the enzyme activity; it can be measured by means of the increase in extinction at […] per unit of time.
0.025 ml of glucose-6-phosphate-dihydrogenase were diluted to 10 ml with distilled water (Solution I). 100 mg of nicotinamide-adenine-dinucleotide-phosphate were dissolved in 13 ml of distilled water (Solution II). 47.2 mg of glucose-6-phosphate were dissolved in another 10 ml of distilled water (Solution III). Besides this, a buffer solution (Solution IV) was prepared as follows:
0.28 gm of triethanolamine hydrochloride and 1.461 gm of ethylene-diamine tetraacetic acid disodium salt were dissolved in 1 liter of distilled water, and the solution was adjusted to pH 7.6 with sodium hydroxide. The substance to be tested was dissolved in dimethyl formamide or ethanol (Solution V). Tested end-concentrations: 25, 12.5, 6.25, 3.125, 1.56 and 0.78 μg/ml.
A mixture of 0.1 ml of Solution I, 0.1 ml of Solution II, 2.67 ml of Solution IV and 0.03 ml of Solution V was kept at 37° C. for 120 minutes. After addition of 0.1 ml of Solution III and thorough mixing, the change in extinction was measured photometrically at 366 nm over 3 minutes. The inhibition values were calculated from the average values of 3 measurements (as change of extinction per minute), compared to controls to which the pure solvent was added as inhibitor solution. The ED50 was calculated according to the method of REED and MUENCH from the inhibiting values of the different concentrations. The following table contains the values thus determined: […]

[3] = Penetration and metabolization in the skin in vitro; assay type: in vitro ADME, pig; settings: thin-layer chromatography; for penetration into the layers of the skin: same carriers
[4] = Acute toxicity in the rat; assay type: in vivo; settings: in vivo, ip, within 14 days
Procedure: (§1) The acute toxicity was determined in the mouse and in the rat. Determined was the LD50, i.e. the dose after administration of which 50% of the animals died within 14 days, or it was determined how many of the 10 treated animals died within the period of observation.

rat = experiment: Acute toxicity in the rat; assay type: in vivo; settings: 2000 mg/kg
Procedure: as §1

[5] = Acute toxicity in the mouse; assay type: in vivo; settings: in vivo, ip, within 14 days
Procedure: as §1

mouse = experiment: Acute toxicity in the mouse; assay type: in vivo
Procedure: as §1

skin of guinea pigs = experiment: Skin compatibility test on guinea pigs; assay type: in vivo, guinea pig (Perbright White strain); settings: for Sum of the reactions divided by the number of animals: score 0 no irritation to 3 very strong erythema; for skin compatibility compared with compound A: Table 3
Procedure: Guinea pigs of the Perbright White strain, with a body weight of about 350 gm, were fed with standard guinea pig feed (Altromin 3022) and water ad lib.
During the test, the animals were kept in single cages. The test substances, which were dissolved in a well compatible solvent, were applied to the skin of the animals (diameter of the test area 3.5 cm) daily for 3 weeks, from Monday to Friday. The animals were shaved each Monday, Wednesday and Friday in the early morning, the treatment with the test substances was performed in the early afternoon. Immediately before administration of the substance, the skin reaction was tested. The evaluation was carried out visually, and erythema, edema, and mycosis of the skin were considered.
The following evaluation was made:
2: strong erythema with beginning edema
3: very strong erythema with edema or beginning necrosis.
The numerical sum of the reactions was used for the total evaluation of a group of animals.

guinea pigs = experiment: Sensitizing activity on guinea pigs; assay type: in vivo, guinea pig (Perbright White strain); settings: 1:10 to 1:50 of the original concentrations, behind the ears
Procedure: The sensitizing activity was tested 2 weeks after the skin compatibility test with 1:10 to 1:50 of the originally used concentrations behind the ears.

skin [6] = experiment: Skin compatibility under occlusion, method of Mustakallio; assay type: in vivo; settings: 4 to 128 mmols in white vaseline, after 4 and after 16 hours of occlusion
Procedure: In a further test, according to the method of Mustakallio, compound A was applied at concentrations of 1, 2, 4, 8, 16, 32 mmols in white vaseline and allowed to remain on the skin for 4 hours under occlusion. Compounds C and K, however, were applied at concentrations of 4, 8, 16, 32, 64, 128 mmols, also in white vaseline, and allowed to remain on the skin for 16 hours under occlusion. […] This means that the novel compounds are more compatible by a factor of at least 64.

[7] = Natural color of the substance (UV-absorption, FIG. 1); assay type: physicochemical; settings: shortwave portion of visible light, beginning at 380 nm
From the text: Topically administrable substances which are colored are undesirable for cosmetic reasons and also because the lingerie may become soiled. […] This is also expressed by the optic impression of the preparations. […] This is a further advantage compared with dithranol.

skin [8] = settings: literature or prior use; cited from earlier work
psoriasis = settings: cited from earlier work; for antipsoriatic activity: literature or prior use

## CC(C)c1cc(C(C)C)c2c(c1O)C(=O)c1c(O)cccc1C2 [G, 1,8-Dihydroxy-2,4-diisopropyl-9-(10H)anthracenone]
[1]
  discoloration of the skin: no skin irritation or discoloration of the skin
  skin irritation: no skin irritation
[2]
  ED50, inhibition of incubation after 120 minutes: 5.67 mg/L
[3]
  penetration into the layers of the skin: penetrate to an approximately equal extent
  metabolization in the skin: metabolized in a similar manner

## CCCCC(C)c1ccc2c(c1O)C(=O)c1c(O)cccc1C2 (centres unmarked) [E, 2-(2-Hexyl)-1,8-dihydroxy-9-(10H)anthracenone]
[1]
  discoloration of the skin: no skin irritation or discoloration of the skin
  skin irritation: no skin irritation
[2]
  ED50, inhibition of incubation after 120 minutes: 3.61 mg/L

## CC(C)c1ccc(O)c2c1Cc1cccc(O)c1C2=O [Compound F, 1,8-Dihydroxy-4-isopropyl-9-(10H)anthracenone]
[4]
  LD50 at 336 h: 45 mg/kg
rat; p.o.
  Number of dead animals: 0/10
rat; sc.
  Number of dead animals: 0/10
[5]
  LD50 at 336 h: 52 mg/kg
mouse; p.o., 2000 mg/kg
  Number of dead animals: 0/10
mouse; sc., 2000 mg/kg
  Number of dead animals: 0/10
[1]
  discoloration of the skin: no skin irritation or discoloration of the skin
  skin irritation: no skin irritation
Skin of guinea pigs; 0.015%, end of 1st week
  Sum of the reactions divided by the number of animals: 0.085
Skin of guinea pigs; 0.015%, end of 2nd week
  Sum of the reactions divided by the number of animals: 0.085
Skin of guinea pigs; 0.015%, end of 3rd week
  Sum of the reactions divided by the number of animals: 0.085
Skin of guinea pigs; 0.045%, end of 1st week
  Sum of the reactions divided by the number of animals: 0.085
Skin of guinea pigs; 0.045%, end of 2nd week
  Sum of the reactions divided by the number of animals: 0.085
Skin of guinea pigs; 0.045%, end of 3rd week
  Sum of the reactions divided by the number of animals: 0.085
Skin of guinea pigs
  skin compatibility compared with compound A: considerably more skin-compatible than compound A
Guinea pigs
  sensitization: no sensitization
[2]
  ED50, inhibition of incubation after 120 minutes: 5.35 mg/L

## CC(C)(C)c1ccc2c(c1O)C(=O)c1c(ccc(C(C)(C)C)c1O)C2 [Compound K, 2,7-Di-tert. butyl-1,8-dihydroxy-9-(10H)anthracenone]
Skin [6]
  skin irritations or discolorations: no skin irritations or discolorations could be observed
mouse; i.p., 1000 mg/kg
  Number of dead animals: 0/10
mouse; p.o., 4000 mg/kg
  Number of dead animals: 0/10
mouse; sc., 1000 mg/kg
  Number of dead animals: 0/10
Skin of guinea pigs; 0.03%, end of 1st week
  Sum of the reactions divided by the number of animals: 0.00
Skin of guinea pigs; 0.03%, end of 2nd week
  Sum of the reactions divided by the number of animals: 0.042
Skin of guinea pigs; 0.03%, end of 3rd week
  Sum of the reactions divided by the number of animals: 0.00
Skin of guinea pigs
  skin compatibility compared with compound A: considerably more skin-compatible than compound A
Guinea pigs
  sensitization: no sensitization
[2]
  ED50, inhibition of incubation after 120 minutes: 7.77 mg/L
[7]
  UV-absorption / yellow color: significantly less UV-absorption
[3]
  penetration into the layers of the skin: penetrate to an approximately equal extent
  metabolization in the skin: metabolized in a similar manner

## O=CCCC1(CCC=O)c2cccc(O)c2C(=O)c2c(O)cccc21 [bis-(formylethyl)-dithranol]
Skin [8]
  skin irritation and/or discoloration: no irritation and discoloration
psoriasis
  antipsoriatic activity: did not exhibit any antipsoriatic activity

## CC(C)(C)c1ccc2c(c1O)C(=O)c1c(O)cccc1C2 [D, 2-tert. Butyl-1,8-dihydroxy-9-(10H)anthracenone]
[1]
  discoloration of the skin: no skin irritation or discoloration of the skin
  skin irritation: no skin irritation
Skin of guinea pigs; 0.03%, end of 1st week
  Sum of the reactions divided by the number of animals: 0.083
Skin of guinea pigs; 0.03%, end of 2nd week
  Sum of the reactions divided by the number of animals: 0.042
Skin of guinea pigs; 0.03%, end of 3rd week
  Sum of the reactions divided by the number of animals: 0.00
Skin of guinea pigs
  skin compatibility compared with compound A: considerably more skin-compatible than compound A
Guinea pigs
  sensitization: no sensitization
[2]
  ED50, inhibition of incubation after 120 minutes: 6.32 mg/L

## O=C1c2c(O)cccc2Cc2ccc(C3CCCCC3)c(O)c21 [Compound I, 2-Cyclohexyl-1,8-dihydroxy-9-(10H)anthracenone]
[2]
  ED50, inhibition of incubation after 120 minutes: 3.94 mg/L

## O=C1c2c(O)cccc2Cc2c(Cl)ccc(O)c21 [H, 4-Chloro-1,8-dihydroxy-9-(10H)anthracenone]
[2]
  ED50, inhibition of incubation after 120 minutes: 3.85 mg/L

## CC(=O)Oc1cccc2cc3cccc(OC(C)=O)c3c(OC(C)=O)c12 [dithranol triacetate, 1,8,9-Triacetoxyanthracene]
Skin [8]
  skin irritation and/or discoloration: less skin irritation
psoriasis
  antipsoriatic activity: less active than dithranol
psoriasis; literature, compared with dithranol
  therapeutic index: a real improvement of the therapeutic index could not be obtained

## CC(=O)C1c2cccc(O)c2C(=O)c2c(O)cccc21 [10-Acetyl-dithranol]
Skin [8]
  skin irritation and/or discoloration: discolored and irritated the skin at concentrations from 0.5% even more than the starting compound

## Cc1cc(O)c2c(c1)Cc1cccc(O)c1C2=O [Compound B, 1,8-Dihydroxy-3-methyl-9-(10H)-anthracenone, reference compound]
[1]
  discoloration of the skin: skin discoloration similar to compound A
[2]
  ED50, inhibition of incubation after 120 minutes: 6.86 mg/L
